Read-outs that look alike come from different tables or passages of the source.
Tested on: PopD E3 M-833 resistant clone (PfSTART1 N309K)
Assay: Growth inhibition assay (72 h, LDH activity)
Type: cell-based, Plasmodium falciparum
Experimental: The drug was then removed, and parasites were allowed to recover. Another cycle of drug treatment (3 μM M-833) was then resumed. The resistant lines were cloned out by limiting dilution (diluting the culture into a 96-well plate to achieve an average of ~0.3 parasites per well), prior to growth inhibition assays and genomic DNA (gDNA) extraction (DNeasy Blood and Tissue kit (Qiagen)[18].
Parasite growth assays with inhibitory compounds were performed as per[11] and are fully described in the Supplementary Information.
Molecular biology and transfection of P. falciparum: CRISPR method.
The full 5’ homology region of pfstart1 (either WT, N309K or N330K) was amplified from pPfSTART1-HA-2A-Neo-glmS with the same 5’ BglII primer and a new 3’ primer that replaced with PstI with SpeI and introduced a stop codon. The PCR product was then digested with BglII and SpeI and inserted into similarly digested p1.2 parasite vector2. The p1.2 vector had previously been inserted with a homology region amplified from the 3’ end of the pfstart1 gene (3’HB) to form a second homology block for double recombination. The primers used to amplify 3’HB are listed primers listed in […]
60 μg of p1.2-PfSTART1(WT/N309K/N330K) plasmid was linearised with KasI, precipitated in 3 M sodium acetate and ethanol (70% final concentration) overnight at -20°C. The DNA pellet was washed in cold 70% ethanol and resuspended in cytomix 3.
50 μ M of crRNA ( Table S 2) and 50 μM of tracRNA (Integrated DNA Technologies) were allowed to form a duplex (5 min at 95°C), and Cas9 enzyme (Integrated DNA Technologies) was added, and incubated for 20 min at room temperature 4. This crRNA -tracRNA -Cas9 mix was added to each DNA preparation and transfected to 3D7 ring parasites using the Bio -Rad Gene Pulser at 310 V and 950 μF.
Parasites containing the transfected DNA were selected using 2.5 nM WR99210 (Jacobus). Parasites lines were cloned using limiting dilution. Correct integration was tested by PCR (using primer START_5’UTR.F and START_Int.R1 , Table S 2), and sequencing was done using the primers START_3F and START_Int.R2 (Table S 2).
Growth inhibition assays. Synchronised ring-stage parasites (0.3-0.6% parasitemia, 2% haematocrit) were grown for 72 h in a serial-dilution of the compound under […]
and compound 4. Note that M-833 was first purchased from MolPort (MolPort -002-267-916) then made in-house at WEHI: the differences observed in EC50s across experiments are attributed to the different batches of M -833. For some experiments, 0, 0.25 or 2.5 mM of glucosamine (GlcN) was also added. Experiments were set up in technical duplicates or triplicates. Following a freeze -thaw cycle, lactate dehydrogenase (LDH) activity was assessed as an indicator of parasite growt h 5. 30 μL of parasite culture was incubated for 30 min in the dark with 75 μL Malstat mixture (0.1 M Tris pH 9.0, 20 g/L lactic acid, pH 7.5, 0.2% Triton-X100, 0.5 g/L acetylpyridine adenine dinucleotide (APAD, Sigma), 200 μg/mL nitroblue tetrazolium (NBT; Sigma), 1 μg/mL phenozine ethosulfate (PES; Sigma)). Absorbance was then measured at 650 nm, transformed using the formula below, plotted against the logarithm of the concentrations, and a non-linear regression (log(inhibitor) vs. response, variable slope) was calculated using GraphPad Prism to assess the half-inhibitory […]
Growth inhibition % = (1 − average(sample)− average(uRBC)) ∗ 100 […]
The DMSO samples were also used to assess growth of parasite in the presence of 0.25 and 2.5 mM GlcN (normalised by DMSO in 0 mM GlcN).
Egress, invasion & recovery assay. To measure egress, invasion and follow up recovery in the presence of different compounds, we adapted the method developed in6, using Hyp1-Nluc parasites7. These parasites episomally express the exported PEXEL protein Hyp1 (PF3D7_0113300) tagged with a NanoLuc luciferase (NLuc) and were selected with 2.5 nM WR99210 (Jacobus). Highly synchronised schizonts were […]

With `Cc1cc(Cl)c(S(=O)(=O)N2CCCC2)cc1OCC(=O)NC1CCCCC1` [M-833] the “Normalised to DMSO” value (M-833 0.0390625 uM, Pop D-E3 replicate 1) was 112.377, the “Normalised to DMSO” value (M-833 0.0390625 uM, Pop D-E3 replicate 3) was 111.25 and the “Normalised to DMSO” value (M-833 0.078125 uM, Pop D-E3 replicate 1) was 99.4191. The “Normalised to DMSO” value (M-833 0.078125 uM, Pop D-E3 replicate 3) was 110.5, the “Normalised to DMSO” value (M-833 0.15625 uM, Pop D-E3 replicate 1) was 107.328 and the “Normalised to DMSO” value (M-833 0.15625 uM, Pop D-E3 replicate 3) was 114.438. For the same compound, the “Normalised to DMSO” value (M-833 0.3125 uM, Pop D-E3 replicate 1) was 106.122, the “Normalised to DMSO” value (M-833 0.3125 uM, Pop D-E3 replicate 3) was 114.625 and the “Normalised to DMSO” value (M-833 0.625 uM, Pop D-E3 replicate 1) was 101.028. For the same compound, the “Normalised to DMSO” value (M-833 0.625 uM, Pop D-E3 replicate 3) was 107.875, the “Normalised to DMSO” value (M-833 1.25 uM, Pop D-E3 replicate 1) was 86.6399 and the “Normalised to DMSO” value (M-833 1.25 uM, Pop D-E3 replicate 3) was 110.688. For the same compound, the “Normalised to DMSO” value (M-833 2.5 uM, Pop D-E3 replicate 1) was 72.8552, the “Normalised to DMSO” value (M-833 2.5 uM, Pop D-E3 replicate 3) was 90.4375 and the “Normalised to DMSO” value (M-833 5 uM, Pop D-E3 replicate 1) was 44.37. For the same compound, the “Normalised to DMSO” value (M-833 5 uM, Pop D-E3 replicate 3) was 73.375, the “Normalised to DMSO” value (M-833 10 uM, Pop D-E3 replicate 1) was 23.9276 and the “Normalised to DMSO” value (M-833 10 uM, Pop D-E3 replicate 3) was 62.6875. It also gave an inhibition at 0.0390625 µM (Plasmodium falciparum, M-833 0.0390625 uM, Pop D-E3 replicate 1, read-out: % Inhibition) of -12.4%, an inhibition at 0.0390625 µM (Plasmodium falciparum, M-833 0.0390625 uM, Pop D-E3 replicate 3, read-out: % Inhibition) of -11.2% and an inhibition at 0.078125 µM (Plasmodium falciparum, M-833 0.078125 uM, Pop D-E3 replicate 1, read-out: % Inhibition) of 0.581%. It also gave an inhibition at 0.078125 µM (Plasmodium falciparum, M-833 0.078125 uM, Pop D-E3 replicate 3, read-out: % Inhibition) of -10.5%, an inhibition at 0.15625 µM (Plasmodium falciparum, M-833 0.15625 uM, Pop D-E3 replicate 1, read-out: % Inhibition) of -7.33% and an inhibition at 0.15625 µM (Plasmodium falciparum, M-833 0.15625 uM, Pop D-E3 replicate 3, read-out: % Inhibition) of -14.4%. It also gave an inhibition at 0.3125 µM (Plasmodium falciparum, M-833 0.3125 uM, Pop D-E3 replicate 1, read-out: % Inhibition) of -6.12%, an inhibition at 0.3125 µM (Plasmodium falciparum, M-833 0.3125 uM, Pop D-E3 replicate 3, read-out: % Inhibition) of -14.6% and an inhibition at 0.625 µM (Plasmodium falciparum, M-833 0.625 uM, Pop D-E3 replicate 1, read-out: % Inhibition) of -1.03%. The inhibition at 0.625 µM (Plasmodium falciparum, M-833 0.625 uM, Pop D-E3 replicate 3, read-out: % Inhibition) was -7.88%, the inhibition at 1.25 µM (Plasmodium falciparum, M-833 1.25 uM, Pop D-E3 replicate 1, read-out: % Inhibition) was 13.4% and the inhibition at 1.25 µM (Plasmodium falciparum, M-833 1.25 uM, Pop D-E3 replicate 3, read-out: % Inhibition) was -10.7%. It also gave an inhibition at 2.5 µM (Plasmodium falciparum, M-833 2.5 uM, Pop D-E3 replicate 1, read-out: % Inhibition) of 27.1%, an inhibition at 2.5 µM (Plasmodium falciparum, M-833 2.5 uM, Pop D-E3 replicate 3, read-out: % Inhibition) of 9.56% and an inhibition at 5 µM (Plasmodium falciparum, M-833 5 uM, Pop D-E3 replicate 1, read-out: % Inhibition) of 55.6%. It also gave an inhibition at 5 µM (Plasmodium falciparum, M-833 5 uM, Pop D-E3 replicate 3, read-out: % Inhibition) of 26.6%, an inhibition at 10 µM (Plasmodium falciparum, M-833 10 uM, Pop D-E3 replicate 1, read-out: % Inhibition) of 76.1% and an inhibition at 10 µM (Plasmodium falciparum, M-833 10 uM, Pop D-E3 replicate 3, read-out: % Inhibition) of 37.3%. It also gave an inhibition at 0.0390625 µM (Plasmodium falciparum, Pop D-E3 replicate 1, M-833 0.0390625 uM) of 2.67%, an inhibition at 0.078125 µM (Plasmodium falciparum, Pop D-E3 replicate 1, M-833 0.078125 uM) of -1.86% and an inhibition at 0.15625 µM (Plasmodium falciparum, Pop D-E3 replicate 1, M-833 0.15625 uM) of 1.05%. For the same compound, the inhibition at 0.3125 µM (Plasmodium falciparum, Pop D-E3 replicate 1, M-833 0.3125 uM) was 2.17%, the inhibition at 0.625 µM (Plasmodium falciparum, Pop D-E3 replicate 1, M-833 0.625 uM) was 5.06% and the inhibition at 1.25 µM (Plasmodium falciparum, Pop D-E3 replicate 1, M-833 1.25 uM) was 17.9%. It also gave an inhibition at 2.5 µM (Plasmodium falciparum, Pop D-E3 replicate 1, M-833 2.5 uM) of 29.5%, an inhibition at 5 µM (Plasmodium falciparum, Pop D-E3 replicate 1, M-833 5 uM) of 46.7% and an inhibition at 10 µM (Plasmodium falciparum, Pop D-E3 replicate 1, M-833 10 uM) of 65.4%. For the same compound, the EC50 (Plasmodium falciparum, read-out: EC50 (95% confidence interval)) was 3.53 µM, the “Normalised to DMSO” value (Pop D-E3 replicate 1, M-833 0.0390625 uM) was 97.3266 and the “Normalised to DMSO” value (Pop D-E3 replicate 1, M-833 0.078125 uM) was 101.86. The “Normalised to DMSO” value (Pop D-E3 replicate 1, M-833 0.15625 uM) was 98.9539, the “Normalised to DMSO” value (Pop D-E3 replicate 1, M-833 0.3125 uM) was 97.8303 and the “Normalised to DMSO” value (Pop D-E3 replicate 1, M-833 0.625 uM) was 94.9438. For the same compound, the “Normalised to DMSO” value (Pop D-E3 replicate 1, M-833 1.25 uM) was 82.1, the “Normalised to DMSO” value (Pop D-E3 replicate 1, M-833 2.5 uM) was 70.5347 and the “Normalised to DMSO” value (Pop D-E3 replicate 1, M-833 5 uM) was 53.3127. For the same compound, the “Normalised to DMSO” value (Pop D-E3 replicate 1, M-833 10 uM) was 34.6377.

From PMC11189555, “Aryl amino acetamides prevent Plasmodium falciparum ring development via targeting the lipid-transfer protein PfSTART1” (Nature Communications, 2024)
